According to paper PMC9860787, “Indene-Derived Hydrazides Targeting Acetylcholinesterase Enzyme in Alzheimer’s: Design, Synthesis, and Biological Evaluation” (Pharmaceutics, 2022):
Entries after “also recorded” stand apart in the source; their conditions may differ.

How the values were obtained:
hAChE = molecular target: T1, hAChE (Homo sapiens, UniProt P22303); test: biochemical; details: for Selectivity Ratio = (IC50 of BuChE)/(IC50 of AChE): BuChE over AChE; for IC50: Ellman method, triplicate, three independent runs, read-out: IC50 ± SE hAChE
T1 construct: ATCh (derived from human erythrocytes); from tissue; host or cells: human erythrocytes
T1 sequence (P22303 other isoform, or with tags, fused parts or gaps): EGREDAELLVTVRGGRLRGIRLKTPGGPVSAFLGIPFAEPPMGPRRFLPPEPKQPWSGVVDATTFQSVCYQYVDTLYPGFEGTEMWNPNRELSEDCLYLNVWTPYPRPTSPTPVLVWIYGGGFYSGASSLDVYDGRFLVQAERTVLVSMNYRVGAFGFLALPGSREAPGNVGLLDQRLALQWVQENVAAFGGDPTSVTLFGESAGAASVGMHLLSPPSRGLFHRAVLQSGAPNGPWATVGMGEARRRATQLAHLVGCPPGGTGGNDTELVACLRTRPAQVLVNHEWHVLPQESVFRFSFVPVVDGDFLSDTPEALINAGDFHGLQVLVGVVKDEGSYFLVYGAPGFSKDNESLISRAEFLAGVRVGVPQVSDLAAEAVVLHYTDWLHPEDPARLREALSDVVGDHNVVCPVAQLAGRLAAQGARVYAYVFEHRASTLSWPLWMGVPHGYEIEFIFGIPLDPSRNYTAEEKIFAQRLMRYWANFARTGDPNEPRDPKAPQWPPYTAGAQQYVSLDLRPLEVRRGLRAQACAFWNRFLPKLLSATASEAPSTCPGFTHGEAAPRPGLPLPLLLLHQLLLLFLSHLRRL
Protocol: (§1) Enzyme activities were determined using the Ellman spectrophotometric method. Enzyme substrates acetylthiocholine iodide (ATCh) and propionylthiocholine iodide (PTCh) were purchased from Sigma-Aldrich, Steinheim, Germany, and thiole reagent 5.5′-dithiobis-2-nitrobenzoic acid (DTNB) from Sigma-Aldrich, St. Louis, MO, USA. Donpezil and were used as reference compounds (purchased from sigma);
(§2) In initial state, ATCh (derived from human erythrocytes) and PTCh (derived from human plasma) were dissolved in water and DTNB in 0.1 M sodium phosphate buffer (pH 7.4). Sulindac analogues were dissolved in water, and all further dilutions were made in water. Final concentrations of synthetics were in the range of 0.01–200 µM, while substrates were 1.0 mM and 4.0 mM for ATCh and PTCh, respectively. The final dilution of AChE and BChE was 500 and 300 times, respectively. Briefly, 50 µL of AChE (1.00 U mL^−1) or 50 µL of BuChE (0.6 U mL^−1) and 20 µL of the test or standard compounds were incubated in 96 well plates for 30 min at room temperature. […] The IC50 values were calculated using absorbance obtained from the test and standard compounds. The assays were performed in triplicate with three independent runs.

hBuChE = molecular target: T2, hBuChE (Homo sapiens, UniProt P06276); test: biochemical; details: Ellman method, triplicate, three independent runs; read-out: IC50 ± SE hBuChE
T2 construct: PTCh (derived from human plasma); from tissue; host or cells: human plasma
Protocol: as §1, §2

Antioxidant DPPH assay = details: for antioxidant property (in words): DPPH assay, compared to ascorbic acid; for % Free Radicle Scavenging, Mean ± SE: DPPH
Protocol: The assay was performed by previously mentioned protocol. […] The volume of solution was adjusted to 200 μL using methanol. The 96-well plate was incubated at 37 °C for 25 min on shaking water bath with moderate shaking. The absorbance of reaction mixture was measured at 520 nm wavelength. The reducing percentage (RP) of the DPPH was determined by the equation: RP=100 (A0−Ac)/A0 where A0 was the control or untreated DPPH absorbance, and Ac was the test treated DPPH absorbance. Ascorbic acid was used as the standard for the DPPH assay. The assay was performed in triplicate.

[1] = molecular target: AChE induced Aβ 1-42 aggregation (Homo sapiens, UniProt P22303); assay type: biochemical; details: 10 and 20 µM, ThT, 48 h incubation
Sequence of AChE induced Aβ 1-42 aggregation (P22303 32-614): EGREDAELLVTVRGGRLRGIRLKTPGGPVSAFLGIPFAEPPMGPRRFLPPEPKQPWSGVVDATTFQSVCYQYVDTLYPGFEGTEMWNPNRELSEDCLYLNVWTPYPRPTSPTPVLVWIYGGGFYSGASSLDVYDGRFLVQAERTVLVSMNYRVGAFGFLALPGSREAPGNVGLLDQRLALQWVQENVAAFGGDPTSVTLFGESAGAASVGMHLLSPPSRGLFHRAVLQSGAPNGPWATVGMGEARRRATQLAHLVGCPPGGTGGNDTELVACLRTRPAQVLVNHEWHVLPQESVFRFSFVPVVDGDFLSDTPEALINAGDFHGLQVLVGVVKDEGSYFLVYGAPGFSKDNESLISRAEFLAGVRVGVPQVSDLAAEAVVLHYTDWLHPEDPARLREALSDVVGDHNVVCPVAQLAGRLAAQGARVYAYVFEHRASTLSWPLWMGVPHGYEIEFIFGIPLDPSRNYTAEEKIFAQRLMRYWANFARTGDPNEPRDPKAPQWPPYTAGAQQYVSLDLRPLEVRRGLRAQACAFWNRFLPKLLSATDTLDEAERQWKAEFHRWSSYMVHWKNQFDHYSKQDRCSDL
Protocol: Thioflavin T (ThT) assay was performed to determine the inhibition potential of SD-30 against AChE induced Aβ 1-42 aggregation. Aβ 1-42, purchased from Sigma, dissolved in the 10 mM phosphate buffer (PBS) of pH 7.5 to get a stock concentration of […]. The test compounds were dissolved in distilled water and further diluted with PBS. Different proportions of the Aβ 1-42: Inhibitor (1:0.5, 1:10, 1:20) were used in the ThT assay. […] The mixtures were incubated at room temperature for 48 h in the dark. […] The ThT assay was performed in triplicate and in three independent runs.

[2] = test system: SH-SY5Y neuroblastoma cell lines; test: Cell line-based toxicity study, MTT assay; details: 72 h
Protocol: The toxicity of compound SD-30 was evaluated against SH-SY5Y neuroblastoma cell lines by the MTT assay according to the literature procedure with minor modifications. Briefly, the cell lines (density 1 × 10^5 cells/wells) were plated in 96 well plates and incubated for 24 h at 37 °C in CO2 incubator. Various concentrations of SD-30 ([…]) were added, and cells were incubated for 72 h. After that, […] of MTT reagent was added, and the cells were incubated for an additional 2 h. The obtained purple colored formazan crystals were solubilized in […] DMSO. The absorbance was measured at 570 nm, and the % cell viability was calculated. Each treatment was executed in triplicate and data are presented as percentage of the control.
Generally, in vitro cell line studies have been routinely used as these can be helpful in primary optimization and mechanistic investigations before animal-based toxicology studies. The evaluation of the neuroprotection effect of compound SD-30 ([…]) on human neuroblastoma SH-SY5Y cell lines was assessed through MTT (3-(4,5-dimethylthiazol-2-yl)-2,5- diphenyl tetrazolium bromide) assay This cell line is often used in AD due to its human origin and ease of maintenance.

| Structure (SMILES) | Selectivity Ratio = (IC50 of BuChE)/(IC50 of AChE) (hAChE) | IC50 (hAChE) | IC50 (hBuChE) | antioxidant property (in words) (Antioxidant DPPH assay) | % Free Radicle Scavenging, Mean ± SE (Antioxidant DPPH assay; 50 µM) | % Free Radicle Scavenging, Mean ± SE (Antioxidant DPPH assay; 100 µM) | effect on AChE-induced Aβ1-42 aggregation (in words) [1] | concentration up to which no significant toxicity / cytotoxicity was observed [2] |
| --- | --- | --- | --- | --- | --- | --- | --- | --- |
| CC1=C(CC(=O)NN=Cc2cccc(O)c2)c2cc(F)ccc2C1=Cc1ccc([S+](C)[O-])cc1 (stereo in doubt) [SD-24, 2-(5-fluoro-2-methyl-1-((E)-4-(methylsulfinyl)benzylidene)-1H-inden-3-yl)-N’-((E)-3-hydroxybenzylidene)acetohydrazide] | 2.30 | 40.43 ± 0.067 µM | 92.86 ± 0.066 µM | reasonable antioxidant property | 17.68 ± 0.478% | 43.61 ± 0.983% | – | – |
| COc1cccc(C=NNC(=O)CC2=C(C)C(=Cc3ccc([S+](C)[O-])cc3)c3ccc(F)cc32)c1 (stereo in doubt) [SD-25, 2-(5-fluoro-2-methyl-1-((E)-4-(methylsulfinyl)benzylidene)-1H-inden-3-yl)-N’-((E)-3-methoxybenzylidene) acetohydrazide] | – | > 1000 µM | > 1000 µM | – | 14.00 ± 0.345% | 40.95 ± 1.101% | – | – |
| CC1=C(CC(=O)NN=Cc2ccc(O)cc2)c2cc(F)ccc2C1=Cc1ccc([S+](C)[O-])cc1 (stereo in doubt) [SD-30, 2-(5-fluoro-2-methyl-1-((E)-4-(methylsulfinyl)benzylidene)-1H-inden-3-yl)-N’-((E)-4-hydroxybenzylidene)acetohydrazide] | 3.50 | 13.9 ± 0.163 µM | 48.55 ± 0.136 µM | reasonable antioxidant properties; also recorded: reasonable antioxidant property | 17.37 ± 0.988% | 45.39 ± 1.036% | effectively inhibited AChE-induced Aβ aggregation; also recorded: effective on Aβ1-42 aggregation; also recorded: concentration-dependent decrease in the Aβ aggregation | up to 30 mM |
| COc1ccccc1C=NNC(=O)CC1=C(C)C(=Cc2ccc([S+](C)[O-])cc2)c2ccc(F)cc21 (stereo in doubt) [SD-31, 2-(5-fluoro-2-methyl-1-((E)-4-(methylsulfinyl)benzylidene)-1H-inden-3-yl)-N’-((E)-2-methoxybenzylidene) acetohydrazide] | – | 733.16 ± 0.143 µM | > 1000 µM | – | 12.24 ± 0.222% | 39.39 ± 0.860% | – | – |
| O=C1O[C@H]([C@@H](O)CO)C(O)=C1O [Ascorbic acid, reference compound] | – | – | – | – | 42.66 ± 1.491% | 76.76 ± 0.708% | – | – |
| CC1=C(CC(=O)NN=Cc2c(O)cccc2O)c2cc(F)ccc2/C1=C\c1ccc([S+](C)[O-])cc1 (centres unmarked) [SD-40] | 2.63 | 108.9 ± 0.142 µM | 286.01 ± 0.143 µM | – | 28.67 ± 0.422% | 63.42 ± 0.831% | – | – |
| CC1=C(CC(=O)NN=Cc2cccc(O)c2O)c2cc(F)ccc2/C1=C\c1ccc([S+](C)[O-])cc1 (centres unmarked) [SD-42] | 2.86 | 92.44 ± 0.106 µM | 264.33 ± 0.068 µM | reasonable antioxidant property | 30.43 ± 0.299% | 64.98 ± 1.071% | – | – |
